What was measured:
[1] = target: T1, Xanthine dehydrogenase/oxidase (Bos taurus, UniProt P80457); assay: Inhibition of bovine xanthine oxidase assessed as reduction in uric acid formation at 10 uM preincubated for 5 mins followed by xanthine addition and measured after 20 mins by spectrophotometry; conditions: cattle
[2] = target: T1, Xanthine dehydrogenase/oxidase; assay: Inhibition of bovine xanthine oxidase assessed as reduction in uric acid formation preincubated for 5 mins followed by xanthine addition and measured after 20 mins by spectrophotometry
[3] = target: T1, Xanthine dehydrogenase/oxidase; assay: Mixed type inhibition of bovine xanthine oxidase assessed as reduction in uric acid formation at 0.5 to 2 uM preincubated for 5 mins followed by xanthine addition and measured after 20 mins by spectrophotometry based Lineweaver-Burk plot analysis; conditions: cattle

T1 sequence (P80457 whole entry): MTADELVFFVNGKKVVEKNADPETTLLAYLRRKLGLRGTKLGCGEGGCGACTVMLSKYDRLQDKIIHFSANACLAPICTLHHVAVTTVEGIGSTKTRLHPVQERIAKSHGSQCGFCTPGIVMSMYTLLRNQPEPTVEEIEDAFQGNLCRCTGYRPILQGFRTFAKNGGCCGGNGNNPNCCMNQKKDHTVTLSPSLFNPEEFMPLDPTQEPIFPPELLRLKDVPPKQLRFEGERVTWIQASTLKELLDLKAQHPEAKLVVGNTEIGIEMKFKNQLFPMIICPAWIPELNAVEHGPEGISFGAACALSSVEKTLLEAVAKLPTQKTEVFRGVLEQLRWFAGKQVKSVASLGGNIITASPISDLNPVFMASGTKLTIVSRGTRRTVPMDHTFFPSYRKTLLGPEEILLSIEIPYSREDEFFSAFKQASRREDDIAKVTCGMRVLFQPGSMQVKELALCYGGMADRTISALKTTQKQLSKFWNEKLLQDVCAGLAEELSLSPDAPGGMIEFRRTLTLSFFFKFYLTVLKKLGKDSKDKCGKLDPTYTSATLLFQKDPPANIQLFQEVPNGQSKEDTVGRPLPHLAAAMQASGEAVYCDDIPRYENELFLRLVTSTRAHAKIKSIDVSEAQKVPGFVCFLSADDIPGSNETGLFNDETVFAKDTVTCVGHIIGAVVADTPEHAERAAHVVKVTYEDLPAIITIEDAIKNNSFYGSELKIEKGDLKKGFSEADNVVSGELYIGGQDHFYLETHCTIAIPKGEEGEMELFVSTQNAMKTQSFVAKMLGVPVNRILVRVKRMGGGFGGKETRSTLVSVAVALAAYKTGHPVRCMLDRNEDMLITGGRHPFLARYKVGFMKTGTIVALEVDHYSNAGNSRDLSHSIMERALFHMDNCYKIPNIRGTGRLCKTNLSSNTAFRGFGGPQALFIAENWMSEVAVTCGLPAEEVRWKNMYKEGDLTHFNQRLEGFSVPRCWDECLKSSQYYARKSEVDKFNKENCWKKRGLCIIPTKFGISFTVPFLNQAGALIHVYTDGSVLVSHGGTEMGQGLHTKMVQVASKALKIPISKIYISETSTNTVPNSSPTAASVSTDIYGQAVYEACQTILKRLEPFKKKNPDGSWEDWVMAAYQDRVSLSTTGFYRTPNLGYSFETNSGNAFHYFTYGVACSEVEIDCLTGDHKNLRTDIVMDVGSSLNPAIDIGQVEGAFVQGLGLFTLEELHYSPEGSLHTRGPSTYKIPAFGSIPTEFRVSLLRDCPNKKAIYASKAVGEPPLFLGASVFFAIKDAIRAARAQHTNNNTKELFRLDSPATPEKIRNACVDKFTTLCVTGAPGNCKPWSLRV

Structure (SMILES) | inhibition at 10 µM [1] [%] | IC50 [2] | IC50 ([2]; read-out: IC50) [µM] | inhibition (INH) [3]
NNC(=O)c1cc(-c2cccc([N+](=O)[O-])c2)n[nH]c1=O | < 50 | Not Active |  | 
CCCOc1ccc(-c2cc(C(=O)NN)c(=O)[nH]n2)cc1C#N |  |  | 3.1 | 
CC(C)COc1ccc(-c2cc(C(=O)NN)c(=O)[nH]n2)cc1C#N |  |  | 2.97 | 
CCCCOc1ccc(-c2cc(C(=O)NN)c(=O)[nH]n2)cc1C#N |  |  | 5.24 | 
CC(C)COc1ccc(-c2cc(C(=O)NN)c(=O)[nH]n2)cc1 | < 50 | Not Active |  | 
CC(C)COc1ccc(-c2cc(C(=O)O)c(=O)[nH]n2)cc1C#N | < 50 | Not Active |  | 
CC(C)COc1ccc(-c2cc(C(=O)NN)c(=O)[nH]n2)cc1[N+](=O)[O-] |  |  | 3.65 | 
CCCCCOc1ccc(-c2cc(C(=O)NN)c(=O)[nH]n2)cc1C#N |  |  | 5.89 | 
CC(C)CCOc1ccc(-c2cc(C(=O)O)c(=O)[nH]n2)cc1C#N | < 50 | Not Active |  | 
NNC(=O)c1cc(-c2ccccc2)n[nH]c1=O | < 50 | Not Active |  | 
CC(C)Oc1ccc(-c2cc(C(=O)NN)c(=O)[nH]n2)cc1 | < 50 | Not Active |  | 
CC(C)CCOc1ccc(-c2cc(C(=O)NN)c(=O)[nH]n2)cc1[N+](=O)[O-] |  |  | 6.02 | 
CC(C)Oc1ccc(-c2cc(C(=O)O)c(=O)[nH]n2)cc1[N+](=O)[O-] | < 50 | Not Active |  | 
CC(C)CCOc1ccc(-c2cc(C(=O)NN)c(=O)[nH]n2)cc1C#N |  |  | 4.5 | 
CC(C)Oc1ccc(-c2cc(C(=O)NN)c(=O)[nH]n2)cc1[N+](=O)[O-] |  |  | 1.92 | 
NNC(=O)c1cc(-c2ccc([N+](=O)[O-])cc2)n[nH]c1=O | < 50 | Not Active |  | 
CC(C)Oc1ccc(-c2cc(C(=O)NN)c(=O)[nH]n2)cc1C#N |  |  | 1.03 | Active
CCOc1ccc(-c2cc(C(=O)NN)c(=O)[nH]n2)cc1C#N |  |  | 2.54 | 

Reference: ChEMBL document CHEMBL4392824, “Design, synthesis and bioevaluation of 3-oxo-6-aryl-2,3-dihydropyridazine-4-carbohydrazide derivatives as novel xanthine oxidase inhibitors” (Bioorg Med Chem, 2019)
